According to ChEMBL document CHEMBL1201862, “PubChem BioAssay data set” (2004):
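Test compounds were applied to cells in 96-well plates for 48 hours at 5 doses. The concentration for 50% growth inhibition is given as GI50.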 Activity calls are given as the source filed them. Cut-off read from the data, not from the text of the source: active = GI50 up to about 1.1 µM and inactive = higher.

How the values were obtained:
Experiment in all cases: growth of human tumour cells (NCI), 48 h
SF-295 = system: SF-295
OVCAR-8 = system: OVCAR-8
HT-29 = system: HT-29
OVCAR-3 = system: OVCAR-3
SNB-78 = system: SNB-78
SN12C = system: SN12C
ACHN = system: ACHN
SK-MEL-28 = system: SK-MEL-28
LOX IMVI = system: LOX IMVI
LXFL 529 = system: LXFL 529
MOLT-4 = system: MOLT-4
RPMI-8226 = system: RPMI-8226
M14 = system: M14
DMS-114 = system: DMS-114
K562 = system: K562
SF-268 = system: SF-268
RXF 393 = system: RXF 393
SR = system: SR
TK-10 = system: TK-10
786-0 = system: 786-0
NCI-H460 = system: NCI-H460
SW-620 = system: SW-620
NCI-H226 = system: NCI-H226
CCRF-CEM = system: CCRF-CEM
IGROV-1 = system: IGROV-1
Malme-3M = system: Malme-3M
NCI-H23 = system: NCI-H23
SK-MEL-2 = system: SK-MEL-2
HCT-116 = system: HCT-116
CAKI-1 = system: CAKI-1
A498 = system: A498
SNB-75 = system: SNB-75
M19-MEL = system: M19-MEL
UACC-257 = system: UACC-257
DLD-1 = system: DLD-1
HL-60 = system: HL-60
HOP-92 = system: HOP-92
HOP-62 = system: HOP-62
A549 = system: A549
NCI-H522 = system: NCI-H522
U-251 = system: U-251
SK-OV-3 = system: SK-OV-3
KM12 = system: KM12
UACC-62 = system: UACC-62
OVCAR-4 = system: OVCAR-4
DMS-273 = system: DMS-273
HCT-15 = system: HCT-15
KM-20L2 = system: KM-20L2
COLO 205 = system: COLO 205
HCC 2998 = system: HCC 2998
OVCAR-5 = system: OVCAR-5
SK-MEL-5 = system: SK-MEL-5
SF-539 = system: SF-539
UO-31 = system: UO-31
SNB-19 = system: SNB-19
EKVX = system: EKVX
XF498 = system: XF498

COc1ccc(-c2cc(=O)c3c(OC)cccc3o2)c(OC)c1OC
GI50 (SF-295): > 100 µM (inactive) | GI50 (OVCAR-8): > 100 µM (inactive) | GI50 (HT-29): > 100 µM (inactive) | GI50 (OVCAR-3): > 100 µM (inactive) | GI50 (SNB-78): > 100 µM (inactive) | GI50 (SN12C): > 100 µM (inactive) | GI50 (ACHN): > 100 µM (inactive) | GI50 (SK-MEL-28): > 100 µM (inactive) | GI50 (LOX IMVI): > 100 µM (inactive) | GI50 (LXFL 529): 82.2 µM (inactive) | GI50 (MOLT-4): 54.6 µM (inactive) | GI50 (RPMI-8226): 80.5 µM (inactive) | GI50 (M14): > 100 µM (inactive) | GI50 (DMS-114): > 100 µM (inactive) | GI50 (K562): 68.5 µM (inactive) | GI50 (SF-268): > 100 µM (inactive) | GI50 (RXF 393): 39 µM (inactive) | GI50 (SR): 56.1 µM (inactive) | GI50 (TK-10): 82 µM (inactive) | GI50 (786-0): > 100 µM (inactive) | GI50 (NCI-H460): > 100 µM (inactive) | GI50 (SW-620): > 100 µM (inactive) | GI50 (NCI-H226): > 100 µM (inactive) | GI50 (CCRF-CEM): > 100 µM (inactive) | GI50 (IGROV-1): > 100 µM (inactive) | GI50 (Malme-3M): > 100 µM (inactive) | GI50 (NCI-H23): > 100 µM (inactive) | GI50 (SK-MEL-2): > 100 µM (inactive) | GI50 (HCT-116): > 100 µM (inactive) | GI50 (CAKI-1): > 100 µM (inactive) | GI50 (A498): > 100 µM (inactive) | GI50 (SNB-75): 19.8 µM (inactive) | GI50 (M19-MEL): > 100 µM (inactive) | GI50 (UACC-257): > 100 µM (inactive) | GI50 (DLD-1): 95.1 µM (inactive) | GI50 (HL-60): 63.1 µM (inactive) | GI50 (HOP-92): 39.9 µM (inactive) | GI50 (HOP-62): > 100 µM (inactive) | GI50 (A549): > 100 µM (inactive) | GI50 (NCI-H522): > 100 µM (inactive) | GI50 (U-251): > 100 µM (inactive) | GI50 (SK-OV-3): > 100 µM (inactive) | GI50 (KM12): > 100 µM (inactive) | GI50 (UACC-62): > 100 µM (inactive) | GI50 (OVCAR-4): > 100 µM (inactive) | GI50 (DMS-273): > 100 µM (inactive) | GI50 (HCT-15): > 100 µM | GI50 (KM-20L2): > 100 µM (inactive) | GI50 (COLO 205): > 100 µM (inactive) | GI50 (HCC 2998): > 100 µM (inactive) | GI50 (OVCAR-5): > 100 µM (inactive) | GI50 (SK-MEL-5): 87.7 µM (inactive) | GI50 (SF-539): > 100 µM (inactive)

CCCCc1c2c(nc3c1CCc1cc4cc5c(nc4nc1-3)-c1nc3c(c(CCCC)c1CC5)CCCC3)CCCC2
GI50 (SF-295): 15.7 µM (inactive) | GI50 (OVCAR-8): 39.6 µM (inactive) | GI50 (UO-31): 68.5 µM (inactive) | GI50 (HT-29): 7.28 µM (inactive) | GI50 (OVCAR-3): > 10 µM (inactive) | GI50 (SNB-78): > 100 µM (inactive) | GI50 (SN12C): 56.4 µM (inactive) | GI50 (ACHN): 23.8 µM (inactive) | GI50 (SK-MEL-28): 69.5 µM (inactive) | GI50 (LOX IMVI): 41.9 µM (inactive) | GI50 (SNB-19): 34.4 µM (inactive) | GI50 (LXFL 529): 18 µM (inactive) | GI50 (MOLT-4): 35.2 µM (inactive) | GI50 (RPMI-8226): 27 µM (inactive) | GI50 (M14): 53.1 µM (inactive) | GI50 (DMS-114): 26.8 µM (inactive) | GI50 (K562): 39.4 µM (inactive) | GI50 (SF-268): 39.3 µM (inactive) | GI50 (RXF 393): 6.56 µM (inactive) | GI50 (SR): 47.4 µM (inactive) | GI50 (TK-10): 26.9 µM (inactive) | GI50 (786-0): 23.6 µM (inactive) | GI50 (NCI-H460): 47.1 µM (inactive) | GI50 (SW-620): 40 µM (inactive) | GI50 (NCI-H226): 19.4 µM (inactive) | GI50 (EKVX): 12.5 µM (inactive) | GI50 (CCRF-CEM): 31.7 µM (inactive) | GI50 (IGROV-1): 38.5 µM (inactive) | GI50 (Malme-3M): 38.6 µM (inactive) | GI50 (NCI-H23): 49.5 µM (inactive) | GI50 (HCT-116): 34.5 µM (inactive) | GI50 (SNB-75): 49.9 µM (inactive) | GI50 (M19-MEL): 54 µM (inactive) | GI50 (UACC-257): 59.8 µM (inactive) | GI50 (DLD-1): 59.8 µM (inactive) | GI50 (HL-60): 42.1 µM (inactive) | GI50 (HOP-62): 37.9 µM (inactive) | GI50 (A549): 20.5 µM (inactive) | GI50 (NCI-H522): 43.7 µM (inactive) | GI50 (U-251): 31.8 µM (inactive) | GI50 (SK-OV-3): 36.5 µM (inactive) | GI50 (KM12): 48.1 µM (inactive) | GI50 (UACC-62): 19.6 µM (inactive) | GI50 (DMS-273): 42.2 µM (inactive) | GI50 (HCT-15): 33.2 µM | GI50 (KM-20L2): 22.8 µM (inactive) | GI50 (COLO 205): 35.4 µM (inactive) | GI50 (HCC 2998): 62.2 µM (inactive) | GI50 (SF-539): 16.4 µM (inactive)

C=CCC1([C@H](C)[C@@H](OC(C)=O)c2cc(OC)c(OC)c(OC)c2)C[C@@H](OC)CCC1=O (stereo partly specified)
GI50 (SF-295): 16 µM (inactive) | GI50 (OVCAR-8): 17 µM (inactive) | GI50 (HT-29): 14.1 µM (inactive) | GI50 (OVCAR-3): 20.7 µM (inactive) | GI50 (SN12C): 17.7 µM (inactive) | GI50 (ACHN): 19.8 µM (inactive) | GI50 (SK-MEL-28): 23.6 µM (inactive) | GI50 (LXFL 529): 14.3 µM (inactive) | GI50 (MOLT-4): 18.6 µM (inactive) | GI50 (RPMI-8226): 10.8 µM (inactive) | GI50 (M14): 15.6 µM (inactive) | GI50 (DMS-114): 12.4 µM (inactive) | GI50 (K562): 16.4 µM (inactive) | GI50 (SF-268): 13.7 µM (inactive) | GI50 (RXF 393): 12.9 µM (inactive) | GI50 (SR): 22.3 µM (inactive) | GI50 (TK-10): 51.3 µM (inactive) | GI50 (786-0): 11.7 µM (inactive) | GI50 (NCI-H460): 17.7 µM (inactive) | GI50 (SW-620): 13.7 µM (inactive) | GI50 (NCI-H226): 22.5 µM (inactive) | GI50 (EKVX): 26.2 µM (inactive) | GI50 (CCRF-CEM): 3.3 µM (inactive) | GI50 (IGROV-1): 19.1 µM (inactive) | GI50 (Malme-3M): 17.2 µM (inactive) | GI50 (NCI-H23): 9.59 µM (inactive) | GI50 (SK-MEL-2): 15.3 µM (inactive) | GI50 (HCT-116): 13.1 µM (inactive) | GI50 (CAKI-1): 70.8 µM (inactive) | GI50 (SNB-75): 18 µM (inactive) | GI50 (M19-MEL): 15.6 µM (inactive) | GI50 (UACC-257): > 10 µM (inactive) | GI50 (DLD-1): 16.2 µM (inactive) | GI50 (HL-60): 12.8 µM (inactive) | GI50 (HOP-92): 23 µM (inactive) | GI50 (HOP-62): 35.7 µM (inactive) | GI50 (A549): 27.7 µM (inactive) | GI50 (NCI-H522): 11.1 µM (inactive) | GI50 (U-251): 13.8 µM (inactive) | GI50 (SK-OV-3): 59.4 µM (inactive) | GI50 (KM12): 16.4 µM (inactive) | GI50 (UACC-62): 16.1 µM (inactive) | GI50 (XF498): 17.9 µM (inactive) | GI50 (OVCAR-4): 25.5 µM (inactive) | GI50 (HCT-15): 14.2 µM | GI50 (KM-20L2): 12 µM (inactive) | GI50 (COLO 205): 19.1 µM (inactive) | GI50 (SK-MEL-5): > 100 µM (inactive) | GI50 (SF-539): 16.4 µM (inactive)
